Results reported in US6737383B1, “Herbicidal oxadiazolidines” (priority 1999, dated 2004).

Columns and labels:
Italian ryegrass = test: Test E Italian ryegrass; assay type: in vivo, Lolium multiflorum; conditions: Preemergence
bermuda-grass = test: Test D bermudagrass; assay type: in vivo, Cynodon dactylon; conditions: Preemergence, 0 to 100 scale
Procedure, shortened: (§1)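 Seeds were sown in greenhouse pots, one species per pot or compartment. Compounds were in a non-phytotoxic solvent mixture with surfactant; preemergence applications went on the sandy loam surface within one day of planting. Injury was rated visually after 14 to 21 days, 0 (none) to 100 (complete control).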

Green foxtail [1] = test: Test D green foxtail; assay type: in vivo
Procedure, shortened: as §1

winter barley = test: Test E winter barley; assay type: in vivo, Hordeum vulgare; conditions: Preemergence
winter wheat [2] = test: Test E winter wheat; assay type: in vivo, Triticum aestivum; conditions: Preemergence
purple nutsedge = test: Test B pre/postemergence purple nutsedge; assay type: in vivo, Cyperus rotundus
Procedure, shortened: (§2)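 Herbicidal effect was estimated by eye on a ten-point control scale after plants spent twelve to sixteen days in a greenhouse following soil or foliar treatment. Foliar sprays targeted plants at one to four leaves; all doses were formulated in a non-phytotoxic solvent with surfactant.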

winter wheat [3] = test: Test E winter wheat; assay type: in vivo, Triticum aestivum; conditions: Postemergence, 0 to 100 scale
Procedure, shortened: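 Greenhouse test: compounds in non-phytotoxic solvent with surfactant; for postemergence, sprayed on plants at 1- to 4-leaf stage grown in 60:40 sandy loam/potting mix. Injury rated visually against untreated controls after about 21 to 28 days.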

wild oat = test: Test E wild oat; assay type: in vivo, Avena fatua; conditions: Preemergence
Green foxtail [4] = test: Test D green foxtail; assay type: in vivo; conditions: Preemergence, 0 to 100 scale
Procedure, shortened: as §1

blackgrass [5] = test: Test B pre/postemergence blackgrass; assay type: in vivo, Alopecurus myosuroides
Procedure, shortened: as §2

dallisgrass = test: Test D dallisgrass; assay type: in vivo, Paspalum dilatatum; conditions: Preemergence, 0 to 100 scale
Procedure, shortened: as §1

green foxtail [6] = test: Test E green foxtail; assay type: in vivo, Setaria viridis; conditions: Preemergence
giant foxtail = test: Test B pre/postemergence giant foxtail; assay type: in vivo, Setaria faberii
Procedure, shortened: as §2

wheat = test: Test B pre/postemergence wheat; assay type: in vivo, Triticum aestivum
Procedure, shortened: as §2

blackgrass [7] = test: Test E blackgrass; assay type: in vivo, Alopecurus myosuroides; conditions: Preemergence
[8] = Rate 62 g/ha, 0 to 100 scale, 0 no effect, 100 complete control
[9] = Rate 125 g/ha, 0 to 100 scale (0 no effect, 100 complete control)
[10] = Rate 16 g/ha, 0 no injury, 100 complete control
[11] = Rate 32 g/ha, 0 no injury, 100 complete control
[12] = Rate 64 g/ha, 0 no injury, 100 complete control
[13] = Rate 125 g/ha, 0 no injury, 100 complete control
[14] = Rate 64 g/ha, Preemergence; 0 to 100 scale, 0 no injury, 100 complete control
[15] = Rate 125 g/ha, Preemergence; 0 to 100 scale, 0 no injury, 100 complete control
[16] = Postemergence, Rate 125 g/ha, scale of 0 to 10 where 0 is no effect and 10 is complete control
[17] = Preemergence, Rate 62 g/ha, scale of 0 to 10 where 0 is no effect and 10 is complete control
[18] = Preemergence, Rate 125 g/ha, 0 is no effect, 10 is complete control
[19] = Preemergence, Rate 250 g/ha, scale 0 to 10, 0 is no effect, 10 is complete control
[20] = Preemergence, Rate 500 g/ha, scale 0 to 10 (0 no effect, 10 complete control)
[21] = Rate 62 g/ha, Postemergence, scale of 0 to 10 where 0 is no effect and 10 is complete control
[22] = Rate 250 g/ha, Postemergence, scale 0 to 10, 0 is no effect, 10 is complete control
[23] = Rate 500 g/ha, Postemergence, scale 0 to 10

CC(C)N(C(=O)n1oc(=O)n(N(C)C)c1=O)c1ccc(F)cc1 [Compound 170]
75: Plant response rating, Green foxtail (Green foxtail [1]; Preemergence; Rate 32 g/ha; 0 to 100 scale, 0 no injury, 100 complete control) | Plant response rating, Wheat (winter) (winter wheat [3]; Rate 125 g/ha)
65: Plant response rating, Green foxtail (Green foxtail [1]; Preemergence; Rate 16 g/ha; 0 to 100 scale, 0 no injury, 100 complete control) | Plant response rating, Green foxtail (Green foxtail [1]; Rate 16 g/ha; Preemergence; 0 to 100 scale, 0 no injury, 100 complete control) | Plant response rating, Wild oat (wild oat; [8])
7: Plant response rating, Nutsedge (purple nutsedge; [22]) | Nutsedge plant response rating (purple nutsedge; [23]) | Giant foxtail plant response rating (giant foxtail; [16]) | Wheat plant response rating (wheat; [23])
4: Giant foxtail plant response rating (giant foxtail; [21])
85: Plant response rating, Dallisgrass (dallisgrass; [12]) | Plant response rating, Dallisgrass (dallisgrass; [13]) | Blackgrass plant response rating (0 to 100 scale) (blackgrass [7]; Rate 250 g/ha)
70: Plant response rating, I. Ryegrass (Italian ryegrass; [9]) | I. Ryegrass plant response rating (0 to 100 scale) (Italian ryegrass; Rate 250 g/ha) | Barley (winter) plant response rating (0 to 100 scale) (winter barley; Rate 250 g/ha) | Plant response rating, Wheat (winter) (winter wheat [2]; [8]) | Plant response rating, Wheat (winter) (winter wheat [2]; [9]) | Wheat (winter) plant response rating (0 to 100 scale) (winter wheat [2]; Rate 250 g/ha) | Plant response rating, Wild oat (wild oat; [9]) | Wild oat plant response rating (0 to 100 scale) (wild oat; Rate 250 g/ha)
6: Wheat plant response rating (0 to 10 scale) (wheat; [18]) | Plant response rating, Wheat (wheat; [22])
2: Nutsedge plant response rating (purple nutsedge; [16]) | Nutsedge plant response rating (purple nutsedge; [21])
8: Plant response rating, Giant foxtail (giant foxtail; [22]) | Giant foxtail plant response rating (giant foxtail; [23]) | Wheat plant response rating (wheat; [19]) | Wheat plant response rating (wheat; [20])
90: Plant response rating, Bermudagrass (bermuda-grass; [11])
10: Blackgrass plant response rating (blackgrass [5]; [17]) | Blackgrass plant response rating (0 to 10 scale) (blackgrass [5]; [18]) | Blackgrass plant response rating (blackgrass [5]; [19]) | Blackgrass plant response rating (blackgrass [5]; [20]) | Giant foxtail plant response rating (0 to 10 scale) (giant foxtail; [18]) | Giant foxtail plant response rating (giant foxtail; [19]) | Giant foxtail plant response rating (giant foxtail; [20])
80: Plant response rating, Bermudagrass (bermuda-grass; [10]) | Plant response rating, Wheat (winter) (winter wheat [3]; Rate 62 g/ha)
5: Wheat plant response rating (wheat; [17])
9: Nutsedge plant response rating (0 to 10 scale) (purple nutsedge; [18]) | Nutsedge plant response rating (purple nutsedge; [19]) | Nutsedge plant response rating (purple nutsedge; [20]) | Blackgrass plant response rating (blackgrass [5]; [16]) | Blackgrass plant response rating (blackgrass [5]; [21]) | Plant response rating, Blackgrass (blackgrass [5]; [22]) | Blackgrass plant response rating (blackgrass [5]; [23]) | Giant foxtail plant response rating (giant foxtail; [17])
60: Plant response rating, I. Ryegrass (Italian ryegrass; [8]) | Plant response rating, Barley (winter) (winter barley; [8]) | Plant response rating, Barley (winter) (winter barley; [9]) | Plant response rating, Blackgrass (blackgrass [7]; [8]) | Plant response rating, Blackgrass (blackgrass [7]; [9])
0: Nutsedge plant response rating (purple nutsedge; [17]) | Plant response rating, Dallisgrass (dallisgrass; [10]) | Plant response rating, Dallisgrass (dallisgrass; [11])
100: Plant response rating, Bermudagrass (bermuda-grass; [12]) | Plant response rating, Bermudagrass (bermuda-grass; [13]) | Plant response rating, Bermudagrass (bermuda-grass; Rate 250 g/ha) | Plant response rating, Bermudagrass (bermuda-grass; Rate 500 g/ha) | Plant response rating, Green foxtail (Green foxtail [1]; Rate 32 g/ha; Preemergence; 0 to 100 scale, 0 no injury, 100 complete control) | Green foxtail plant response rating (Green foxtail [1]; [14]) | Plant response rating, Green foxtail (Green foxtail [1]; [14]) | Green foxtail plant response rating (Green foxtail [1]; [15]) | Plant response rating, Green foxtail (Green foxtail [1]; [15]) | Plant response rating, Green foxtail (Green foxtail [1]; Rate 250 g/ha; Preemergence; 0 to 100 scale) | Plant response rating, Green foxtail (Green foxtail [1]; Rate 500 g/ha, Preemergence; 0 to 100 scale) | Plant response rating, Green foxtail (Green foxtail [4]; Rate 250 g/ha) | Plant response rating, Green foxtail (Green foxtail [4]; Rate 500 g/ha) | Plant response rating, Dallisgrass (dallisgrass; Rate 250 g/ha) | Plant response rating, Dallisgrass (dallisgrass; Rate 500 g/ha) | Plant response rating, Green foxtail (green foxtail [6]; [8]) | Plant response rating, Green foxtail (green foxtail [6]; [9]) | Green foxtail plant response rating (0 to 100 scale) (green foxtail [6]; Rate 250 g/ha)
